# US20210047304A1, “Bromodomain Inhibitors” (AbbVie Inc., priority 2016, published 2021)
# Target: BRD4 (BDI_K57-E168) (Homo sapiens, UniProt O60885)
# Test: TR-FRET bromodomain binding assay, BRD4 BDI
row,Ki [µM],Compound
1,3.57,"Cc1cc(F)cc(C)c1Oc1ccc(C(C)(C)O)cc1-c1cn(C)c(=O)cc1O[C@H]1CC[C@H](NC(=O)C(F)(F)F)CC1 [Example 117, 2,2,2-trifluoro-N-[trans-4-({5-[2-(4-fluoro-2,6-dimethylphenoxy)-5-(2-hydroxypropan-2-yl)phenyl]-1-methyl-2-oxo-1,2-dihydropyridin-4-yl}oxy)cyclohexyl]acetamide]"
2,1.91,"Cc1cc(F)cc(C)c1Oc1ccc(C(C)(C)O)cc1-c1cn(C)c(=O)cc1O[C@H]1CC[C@H](NC(=O)CC(C)(C)CO)CC1 [Example 118, N-[trans-4-({5-[2-(4-fluoro-2,6-dimethylphenoxy)-5-(2-hydroxypropan-2-yl)phenyl]-1-methyl-2-oxo-1,2-dihydropyridin-4-yl}oxy)cyclohexyl]-4-hydroxy-3,3-dimethylbutanamide]"
3,2.81,"Cc1cc(F)cc(C)c1Oc1ccc(C(C)(C)O)cc1-c1cn(C)c(=O)cc1O[C@H]1CC[C@H](NC(=O)CCC(C)(C)O)CC1 [Example 119, N-[trans-4-({5-[2-(4-fluoro-2,6-dimethylphenoxy)-5-(2-hydroxypropan-2-yl)phenyl]-1-methyl-2-oxo-1,2-dihydropyridin-4-yl}oxy)cyclohexyl]-4-hydroxy-4-methylpentanamide]"
4,0.891,"Cc1cc(F)cc(C)c1Oc1ccc(C(C)(C)O)cc1-c1cn(C)c(=O)cc1O[C@H]1CC[C@H](N2CC(C)(C)CC2=O)CC1 [Example 120, 4-{[trans-4-(4,4-dimethyl-2-oxopyrrolidin-1-yl)cyclohexyl]oxy}-5-[2-(4-fluoro-2,6-dimethylphenoxy)-5-(2-hydroxypropan-2-yl)phenyl]-1-methylpyridin-2(1H)-one]"
5,3.67,"Cc1cc(F)cc(C)c1Oc1ccc(C(C)(C)O)cc1-c1cn(C)c(=O)cc1O[C@H]1CC[C@H](NC(=O)N2CCOCC2)CC1 [Example 122, N-[trans-4-({5-[2-(4-fluoro-2,6-dimethylphenoxy)-5-(2-hydroxypropan-2-yl)phenyl]-1-methyl-2-oxo-1,2-dihydropyridin-4-yl}oxy)cyclohexyl]morpholine-4-carboxamide]"
6,> 13,"Cc1cc(F)cc(C)c1Oc1ccc(C(C)(C)O)cc1-c1cn(C)c(=O)cc1O[C@H]1CC[C@H](NC(=O)N2CCNC2=O)CC1 [Example 123, N-[trans-4-({5-[2-(4-fluoro-2,6-dimethylphenoxy)-5-(2-hydroxypropan-2-yl)phenyl]-1-methyl-2-oxo-1,2-dihydropyridin-4-yl}oxy)cyclohexyl]-2-oxoimidazolidine-1-carboxamide]"
7,2.11,"CNC(=O)N[C@H]1CC[C@H](Oc2cc(=O)n(C)cc2-c2cc(C(C)(C)O)ccc2Oc2c(C)cc(F)cc2C)CC1 [Example 128, N-[trans-4-({5-[2-(4-fluoro-2,6-dimethylphenoxy)-5-(2-hydroxypropan-2-yl)phenyl]-1-methyl-2-oxo-1,2-dihydropyridin-4-yl}oxy)cyclohexyl]-N′-methylurea]"
8,0.645,"Cc1cc(F)cc(C)c1Oc1ccc(C(C)(C)O)cc1-c1cn(C)c(=O)cc1O[C@H]1CC[C@H](NC(=O)C(C)(C)N)CC1 [Example 139, N-[trans-4-({5-[2-(4-fluoro-2,6-dimethylphenoxy)-5-(2-hydroxypropan-2-yl)phenyl]-1-methyl-2-oxo-1,2-dihydropyridin-4-yl}oxy)cyclohexyl]-2-methylalaninamide]"
9,11.2,"Cc1cc(F)cc(C)c1Oc1ccc(C(C)(C)O)cc1-c1cn(C)c(=O)cc1O[C@H]1CC[C@H](N2C(=O)NC(C)(C)C2=O)CC1 [Example 140, 3-[trans-4-({5-[2-(4-fluoro-2,6-dimethylphenoxy)-5-(2-hydroxypropan-2-yl)phenyl]-1-methyl-2-oxo-1,2-dihydropyridin-4-yl}oxy)cyclohexyl]-5,5-dimethylimidazolidine-2,4-dione]"

# Continued, compound first:
row,Compound,Ki [µM]
1,"CC(=O)N([C@H](C)c1ccc(Oc2c(C)cccc2C)c(-c2cn(C)c(=O)cc2O[C@H]2CC[C@H](NC(=O)C3(C)CC3)CC2)c1)[C@@H](C)c1ccccc1 [Example 116, N-{trans-4-[(5-{5-[(1R)-1-{acetyl[(1S)-1-phenylethyl]amino}ethyl]-2-(2,6-dimethylphenoxy)phenyl}-1-methyl-2-oxo-1,2-dihydropyridin-4-yl)oxy]cyclohexyl}-1-methylcyclopropane-1-carboxamide]",> 13
2,"Cc1cc(F)cc(C)c1Oc1ccc(C(C)(C)O)cc1-c1cn(C)c(=O)cc1O[C@H]1CC[C@H](N2NC(=O)CC2=O)CC1 [Example 121, 1-[trans-4-({5-[2-(4-fluoro-2,6-dimethylphenoxy)-5-(2-hydroxypropan-2-yl)phenyl]-1-methyl-2-oxo-1,2-dihydropyridin-4-yl}oxy)cyclohexyl]pyrazolidine-3,5-dione]",> 13
3,"Cc1cc(F)cc(C)c1Oc1ccc(C(C)(C)O)cc1-c1cn(C)c(=O)cc1O[C@H]1CC[C@H](N2C(=O)N[C@@H](C)C2=O)CC1 [Example 124, (5S)-3-[trans-4-({5-[2-(4-fluoro-2,6-dimethylphenoxy)-5-(2-hydroxypropan-2-yl)phenyl]-1-methyl-2-oxo-1,2-dihydropyridin-4-yl}oxy)cyclohexyl]-5-methylimidazolidine-2,4-dione]",> 13
4,"Cc1cc(F)cc(C)c1Oc1ccc(C(C)(C)O)cc1-c1cn(C)c(=O)cc1O[C@H]1CC[C@H](N2C(=O)CNC2=O)CC1 [Example 125, 3-[trans-4-({5-[2-(4-fluoro-2,6-dimethylphenoxy)-5-(2-hydroxypropan-2-yl)phenyl]-1-methyl-2-oxo-1,2-dihydropyridin-4-yl}oxy)cyclohexyl]imidazolidine-2,4-dione]",> 13
5,"CCN1CC(=O)N([C@H]2CC[C@H](Oc3cc(=O)n(C)cc3-c3cc(C(C)(C)O)ccc3Oc3c(C)cc(F)cc3C)CC2)C1=O [Example 127, 1-ethyl-3-[trans-4-({5-[2-(4-fluoro-2,6-dimethylphenoxy)-5-(2-hydroxypropan-2-yl)phenyl]-1-methyl-2-oxo-1,2-dihydropyridin-4-yl}oxy)cyclohexyl]imidazolidine-2,4-dione]",8.85
6,"Cc1ccc(=O)n([C@H]2CC[C@H](Oc3cc(=O)n(C)cc3-c3cc(C(C)(C)O)ccc3Oc3c(C)cc(F)cc3C)CC2)n1 [Example 130, 2-[trans-4-({5-[2-(4-fluoro-2,6-dimethylphenoxy)-5-(2-hydroxypropan-2-yl)phenyl]-1-methyl-2-oxo-1,2-dihydropyridin-4-yl}oxy)cyclohexyl]-6-methylpyridazin-3(2H)-one]",3.19
7,"Cc1cc(F)cc(C)c1Oc1ccc(C(C)(C)O)cc1-c1cn(C)c(=O)cc1O[C@H]1CC[C@H](N2C(=O)N[C@H](C(C)C)C2=O)CC1 [Example 131, (5R)-3-[trans-4-({5-[2-(4-fluoro-2,6-dimethylphenoxy)-5-(2-hydroxypropan-2-yl)phenyl]-1-methyl-2-oxo-1,2-dihydropyridin-4-yl}oxy)cyclohexyl]-5-(propan-2-yl)imidazolidine-2,4-dione]",6.32
8,"Cc1cc(F)cc(C)c1Oc1ccc(C(C)(C)O)cc1-c1cn(C)c(=O)cc1O[C@H]1CC[C@H](N2C(=O)N[C@H](C)C2=O)CC1 [Example 132, (5R)-3-[trans-4-({5-[2-(4-fluoro-2,6-dimethylphenoxy)-5-(2-hydroxypropan-2-yl)phenyl]-1-methyl-2-oxo-1,2-dihydropyridin-4-yl}oxy)cyclohexyl]-5-methylimidazolidine-2,4-dione]",4.21
9,"CC=C1NC(=O)N([C@H]2CC[C@H](Oc3cc(=O)n(C)cc3-c3cc(C(C)(C)O)ccc3Oc3c(C)cc(F)cc3C)CC2)C1=O [Example 133, 5-ethylidene-3-[trans-4-({5-[2-(4-fluoro-2,6-dimethylphenoxy)-5-(2-hydroxypropan-2-yl)phenyl]-1-methyl-2-oxo-1,2-dihydropyridin-4-yl}oxy)cyclohexyl]imidazolidine-2,4-dione]",> 13
10,"COCCN1CC(=O)N([C@H]2CC[C@H](Oc3cc(=O)n(C)cc3-c3cc(C(C)(C)O)ccc3Oc3c(C)cc(F)cc3C)CC2)C1=O [Example 135, 3-[trans-4-({5-[2-(4-fluoro-2,6-dimethylphenoxy)-5-(2-hydroxypropan-2-yl)phenyl]-1-methyl-2-oxo-1,2-dihydropyridin-4-yl}oxy)cyclohexyl]-1-(2-methoxyethyl)imidazolidine-2,4-dione]",3.68
11,"Cc1cc(F)cc(C)c1Oc1ccc(C(C)(C)O)cc1-c1cn(C)c(=O)cc1O[C@H]1CC[C@H](N2C(=O)NC3(CC3)C2=O)CC1 [Example 136, 6-[trans-4-({5-[2-(4-fluoro-2,6-dimethylphenoxy)-5-(2-hydroxypropan-2-yl)phenyl]-1-methyl-2-oxo-1,2-dihydropyridin-4-yl}oxy)cyclohexyl]-4,6-diazaspiro[2.4]heptane-5,7-dione]",2.47
12,"Cc1cc(F)cc(C)c1Oc1ccc(C(C)(C)O)cc1-c1cn(C)c(=O)cc1O[C@H]1CC[C@H](N2C(=O)[C@H]3CCCN3C2=O)CC1 [Example 138, (7aR)-2-[trans-4-({5-[2-(4-fluoro-2,6-dimethylphenoxy)-5-(2-hydroxypropan-2-yl)phenyl]-1-methyl-2-oxo-1,2-dihydropyridin-4-yl}oxy)cyclohexyl]tetrahydro-1H-pyrrolo[1,2-c]imidazole-1,3(2H)-dione]",12.8
13,"Cc1cc(F)cc(C)c1Oc1ccc(C(C)(C)O)cc1-c1cn(C)c(=O)cc1O[C@H]1CC[C@H](n2ncccc2=O)CC1 [Example 141, 2-[trans-4-({5-[2-(4-fluoro-2,6-dimethylphenoxy)-5-(2-hydroxypropan-2-yl)phenyl]-1-methyl-2-oxo-1,2-dihydropyridin-4-yl}oxy)cyclohexyl]pyridazin-3(2H)-one]",4.09
14,"Cc1cc(F)cc(C)c1Oc1ccc(C(C)(C)O)cc1-c1cn(C)c(=O)cc1O[C@H]1CC[C@H](N2C(=O)N(C)C(C)(C)C2=O)CC1 [Example 142, 3-[trans-4-({5-[2-(4-fluoro-2,6-dimethylphenoxy)-5-(2-hydroxypropan-2-yl)phenyl]-1-methyl-2-oxo-1,2-dihydropyridin-4-yl}oxy)cyclohexyl]-1,5,5-trimethylimidazolidine-2,4-dione]",0.94
15,"Cc1cc(F)cc(C)c1Oc1ccc(C(C)(C)O)cc1-c1cn(C)c(=O)cc1O[C@H]1CC[C@H](n2cccnc2=O)CC1 [Example 143, 1-[trans-4-({5-[2-(4-fluoro-2,6-dimethylphenoxy)-5-(2-hydroxypropan-2-yl)phenyl]-1-methyl-2-oxo-1,2-dihydropyridin-4-yl}oxy)cyclohexyl]pyrimidin-2(1H)-one]",5.24
